According to patent publication US11235001B2, “RUNX inhibitor” (KYOTO UNIVERSITY, priority 2016, dated 2022):
Read-outs that look alike come from different tables or passages of the source.

Legend:
THP-1 = details: THP-1, p53mut(+); for IC50: 48 hours
[1] = tested on: RUNX family (RUNX1, RUNX2 and RUNX3); assay: Gene expression microarray in MV4-11 cells vs RUNX family knockdown; format: cell-based, human; details: 1 μM, 6 hours, top 500 up- and down-regulated genes
Kasumi-1 = details: Kasumi-1, p53mut(+); for IC50: 48 hours
[2] = tested on: c-kit, phospho-c-Kit, AKT, phosphorylated AKT, Mitf; assay: Western blot of KIT signalling, LAD2 mast cells; format: cell-based, human; details: LAD2, 10 μM, 18 hours
Protocol: Cells were washed twice with ice cold phosphate-buffered saline (PBS) and harvested in protein lysis buffer [50 mM Tris (pH 7.4), 100 mM NaCl, 0.1 mM EDTA, 1 mM phenylmethylsulfonyl fluoride, 1 mM β-glycerophosphate, 2.5 mM sodium pyrophosphate, 1 mM Na3VO4, lx protease inhibitor (Roche) and PhosSTOP (Roche)]. Whole cell extracts were separated by SDS-polyacrylamide gel electrophoresis (SDS-PAGE) and electrotransferred onto polyvinylidene difluoride membranes. Membranes were probed with the following antibodies: anti-Ctip1 antibody (Abcam, ab19487), anti-TRIM24 antibody (Bethyl Laboratories, Inc), anti-RUNX1 antibody (A-2), anti-GAPDH (FL-335), anti-p21 (C-19), anti-Bax (N-20) antibodies (Santa Cruz Biotechnology, Inc.), anti-RUNX2, anti-RUNX3, anti-p53 antibodies (Cell Signaling Technology), anti-CBFβ antibody (FL-182, Santa Cruz Biotechnology, Inc.), anti-cleaved caspase-3 antibody (5A1E, Cell Signaling Technology), anti-PARP antibody (46D11, Cell Signaling Technology). For secondary antibodies, anti-rabbit IgG, or anti-mosue IgG HRP-linked antibodies (Cell Signaling Technology) were used. Blots were detected using Chemi-Lumi One Super (nacalai tesque, Inc.) and ChemiDoc™ XRS+ Imager (Bio-Rad Laboratories, Inc.), as recommended by the manufacturers. Protein levels were quantified with Image Lab Software (Bio-Rad Laboratories, Inc.).
To the LAD2 cell line and the HMC-1.2 cell line, 10 μM Chb-M′ was administered. After culturing the cells for 18 hours, extracts were obtained from the cells, and the protein expression levels of c-kit, phospho-c-Kit, AKT, phosphorylated AKT, Mitf, and GAPDH were analyzed by the Western blot analysis (see the above-described “Immunoblotting”) using different antibodies. AKT is an important signaling protein downstream of c-kit. Mitf is a representative transcriptional driver for c-kit. As a control, DMSO was administered. In the figure, “KIT” indicates c-kit, “pKIT” indicates phosphorylated c-kit, and “pAKT” indicates phosphorylated AKT. As primary antibodies, an anti-c-Kit antibody (Ab81, manufactured by Cell Signaling Technology), an anti-phospho-c-Kit (Tyr719) antibody (manufactured by Cell Signaling Technology), an anti-Akt antibody (manufactured by Cell Signaling Technology), an anti-phospho-Akt antibody (Ser473) (manufactured by Cell Signaling Technology), an anti-Mitf antibody (manufactured by Cosmo Bio), and an anti-GAPDH antibody (0411, manufactured by Santa Cruz Biotechnology, Inc.) were used. As secondary antibodies, an ECL™ anti-mouse IgG horseradish peroxidase-linked whole antibody (manufactured by GE Healthcare) and an ECL™ anti-rabbit IgG linked whole antibody (manufactured by GE Healthcare) were used.

MKN45 cells = assay: Xenograft gastric cancer mouse model (MKN45); format: in vivo
[3] = tested on: c-kit (KIT D816V mutation and V560G mutation); assay: FACS of cell surface c-kit, HMC-1.2 mast cells; format: cell-based, human; details: HMC-1.2 (mutated c-kit), 10 μM, 18-hour treatment; DMSO 113
Excerpt: (§1) Mast cells cause symptoms or diseases such as allergic reaction by receptor-mediated activation. In addition, c-kit signal transduction enhances release of chemical mediators from stimulated mast cells. The effect of the RUNX inhibitor on human mast cells was examined. As human mast cells, a LAD2 cell line (expressing wild-type c-kit) and an HMC-1.2 cell line (expressing mutated c-kit) were used. The HMC-1.2 cell line has KIT D816V mutation and V560G mutation. Wild-type c-kit is a SCF receptor and the cell proliferation is dependent on SCF. Accordingly, regarding the LAD2 cell line, 50 ng/ml of SCF was administered and experiments were performed as described below. The HMC-1.2 cell line has a mutation in c-kit and the cell proliferation is independent of SCF. Accordingly, regarding the HMC-1.2 cell line, SCF was not administered and experiments were performed as described below. As the RUNX inhibitor, Chb-M′ was used. […]
(§2) To the LAD2 cell line, 10 μM Chb-M′ was administered. After 3 hours and 18 hours, different antibodies were used for immunostaining of c-kit expressed on the cell surface, and the expression levels were analyzed by FACS (fluorescence-activated cell sorter). […] After 18 hours, different antibodies were used for immunostaining of c-kit expressed on the cell surface, and the expression levels were analyzed by FACS. […]

c-kit = assay: FACS of cell surface c-kit, LAD2 mast cells; format: cell-based, human; details: LAD2 (wild-type c-kit), 10 μM, 18-hour treatment; DMSO 68.3
Excerpt: as §1, §2

[4] = concomitant use of Chb-M′ and PRIMA-1, Chou-Talalay, CI<1 synergism
[5] = read-out: IC50 (μM) of Chb-M′ in concomitant use with PRIMA-1 (5 μM), with 5 μM PRIMA-1
[6] = read-out: IC50 (μM) of Chb-M′ single agent administration

CN(C)CCCNC(=O)c1cc(NC(=O)c2cc(NC(=O)c3cc(NC(=O)c4cc(NC(=O)CCCNC(=O)c5nc(NC(=O)c6nc(NC(=O)c7cc(NC(=O)c8nc(NC(=O)CCNC(=O)CCCc9ccc(N(CCCl)CCCl)cc9)cn8C)cn7C)cn6C)cn5C)cn4C)cn3C)cn2C)cn1C [Chb-M′]
CI (Fa = 0.5) (THP-1; [4]): 0.249
IC50 (THP-1; [5]): 0.5 µM
IC50 (THP-1; [6]): > 100 µM
Gene expression pattern vs cells with all RUNX family members knockdown [1]: significantly correlated
CI (Fa = 0.5) (Kasumi-1; [4]): 0.156
IC50 (Kasumi-1; [5]): 0.359 µM
IC50 (Kasumi-1; [6]): > 100 µM
Expression of c-kit protein [2]: suppressed
Level of phosphorylated AKT protein [2]: decreased
Protein expression level of Mitf [2]: not affected
Total amount of AKT [2]: not considerably changed
phospho-c-Kit protein [2]: suppressed
Tumor growth (tumor volume) (MKN45 cells; MKN45 xenograft, 320 μg/kg IV twice a week, to day 35): almost no change in tumor size
Size of gastric cancer (IVIS) (MKN45 cells; day 21 after transplantation, after total 4 administrations): decreased
Size of gastric cancer (IVIS) (MKN45 cells; day 35 after transplantation, after total 8 administrations): slightly grew
MFI (mean fluorescent intensity) of surface c-kit [3]: 100
MFI (mean fluorescent intensity) of surface c-kit (c-kit): 48.8
